Data as given in patent US6376512B1, “Therapeutic uses of quinoline derivatives” (Aventis Pharma Deutschland GmbH, priority 1997, dated 2002).
pEC50, pKd: −log10 of the molar value. “Also recorded” adds a separate entry of the source. Read-outs that look alike come from different tables or passages of the source. Blank lines part the entries; values can stand above or below the compound they belong to.

Experiments:
LTD4 receptor [1] = target: T1, LTD4 receptor (Homo sapiens, UniProt Q9Y271); test: LTD4 receptor binding in THP-1 cells; conditions: for Kb: THP-1 cells, read-out: LTD4 Binding (Kb for binding of compound to the LTD4 receptor)
T1 construct: endogenous in cells
T1 sequence (Q9Y271 1-337): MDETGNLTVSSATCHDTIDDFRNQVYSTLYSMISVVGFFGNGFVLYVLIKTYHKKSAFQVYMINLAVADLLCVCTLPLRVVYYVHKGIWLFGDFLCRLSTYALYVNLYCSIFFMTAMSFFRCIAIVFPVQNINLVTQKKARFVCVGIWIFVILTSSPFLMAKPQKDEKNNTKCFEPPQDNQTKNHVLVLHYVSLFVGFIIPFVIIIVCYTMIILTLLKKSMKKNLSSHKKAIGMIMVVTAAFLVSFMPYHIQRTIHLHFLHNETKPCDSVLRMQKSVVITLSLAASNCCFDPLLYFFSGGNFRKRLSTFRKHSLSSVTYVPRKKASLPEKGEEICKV

human preadipocytes = test: Adipocyte differentiation of primary human pre-adipocyte cultures (oil red-O); format: cell-based; conditions: for pEC50: Homo sapiens, Adipocyte, human adipocyte differentiation in presence of insulin and dexamethasone
Experimental: Evaluation of the capacity to induce differentiation of primary human pre-adipocyte cultures to adipocytes.
The capacity of Compound VI to induce adipocyte differentiation of primary human pre-adipocyte cultures was evaluated and compared directly to Troglitazone®.
Human subcutaneous preadipocytes were isolated from adipose tissue obtained by liposuction surgery. Preadipocytes were inoculated at high density in preadipocyte medium (DME/F-10, 1:1, (v/v) containing 10% fetal calf serum). Cells were kept in preadipocytic medium overnight for attachment. […] The basal medium, which was used as the negative control, contained DME/F-10, biotin (33 μM), pantothenate (17 μM), insulin (100 nM), and dexamethasone (1 μM). The culture was maintained for 14 days with the compound treatment during the first five days. At the end of the culture, cells were fixed in 5% formalin and stained with oil red-O dye. The dye was extracted by isopropanol and quantitated by measuring the optical density at 500 nm.

db/db mice = test: Oral (in-feed) efficacy in db/db mice, genetic model of type II diabetes; format: in vivo, mouse
Experimental: An in-feed study in this genetic model of type II diabetes was performed. […] The compound of formula VI and Troglitazone® were studied in a genetic model of diabetes (db/db mice). A total of 70 female db/db mice (C57Bl/Ks db+/+; Jackson Labs, Maine), 3 months of age, received either meal chow only (rodent chow # 5001), 50 or 150 mg/kg/day of the compound of formula VI and 50 or 150 mg/kg/day of Troglitazone® mixed with the food. Six animals were sacrificed on Day 0 to obtain baseline values, the remaining 64 animals were randomly distributed into 5 groups. On days 0, 8, 12 and 16 whole blood samples were taken via the tail vein and blood glucose was determined (in duplicate) using the One Touch® gluco-meter. On Day 16, animals were anesthetized using pentobarbital, blood was drawn into EDTA tubes and the following organs were removed: heart, liver, brain, white and brown adipose tissue and the tibia. Plasma was prepared and kept frozen until samples were analyzed for glucose, free fatty acids, insulin and triglycerides. [table] Plasma was analyzed for glucose, triglycerides, free fatty acids and insulin. The latter two methods were slightly modified to use smaller amounts of plasma. Glucose Analysis. Plasma glucose was measured with a Sigma Chemicals Diagnostic kit (#315-500). Triglyceride Analysis. Plasma triglycerides was measured with a Sigma Chemicals Diagnostic kit (#339-500P). Insulin Analysis. Plasma insulin was measured using a radioimmunoassay (RIA) kit from Linco Research Inc. (#RI-13K). This kit was modified slightly using 10 μl of plasma. This kit utilizes an antibody made specifically against rat insulin. The cross-reactivity of this antibody with mouse insulin is 100 percent. Free Fatty Acid Analysis. Plasma free fatty acids were measured using a kit obtained from Wako Chemicals Inc. (NEFA-C; #994-75409). This kit utilizes an in vitro enzymatic colorimetric method for the quantitation of non-esterified fatty acids in serum or plasma. This method relies upon the acylation of coenzyme A by the fatty acids in the presence of added acyl-CoA synthetase. This method was modified slightly to utilize 5 μl of plasma and was performed in a 96-well format (M. Johnson & J. Peters, J. Animal Science 71:753-756, 1993).

PPAR-γ = target: T2, PPAR-γ (Homo sapiens, UniProt P37231); test: PPAR-γ ligand receptor binding; conditions: initial results
T2 sequence (P37231 1-505): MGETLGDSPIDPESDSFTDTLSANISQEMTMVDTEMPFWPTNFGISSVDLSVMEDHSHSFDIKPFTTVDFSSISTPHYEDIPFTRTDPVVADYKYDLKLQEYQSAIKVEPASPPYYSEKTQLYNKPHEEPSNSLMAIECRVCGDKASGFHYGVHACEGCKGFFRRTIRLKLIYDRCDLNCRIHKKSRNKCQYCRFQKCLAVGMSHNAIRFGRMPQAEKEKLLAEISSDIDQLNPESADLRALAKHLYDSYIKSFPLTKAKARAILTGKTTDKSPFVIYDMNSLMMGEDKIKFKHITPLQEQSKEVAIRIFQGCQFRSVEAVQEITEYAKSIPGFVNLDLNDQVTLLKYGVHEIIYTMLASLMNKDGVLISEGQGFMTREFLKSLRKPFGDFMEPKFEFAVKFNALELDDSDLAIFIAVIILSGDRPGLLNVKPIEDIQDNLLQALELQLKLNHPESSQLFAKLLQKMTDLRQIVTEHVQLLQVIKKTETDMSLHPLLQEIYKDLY

LTD4 receptor [2] = target: T3, LTD4 receptor (Cavia porcellus, UniProt Q2NNR5); test: LTD4 binding, guinea pig receptor; conditions: read-out: Kd, antagonist of the guinea pig LTD4 receptor
T3 sequence (Q2NNR5 1-340): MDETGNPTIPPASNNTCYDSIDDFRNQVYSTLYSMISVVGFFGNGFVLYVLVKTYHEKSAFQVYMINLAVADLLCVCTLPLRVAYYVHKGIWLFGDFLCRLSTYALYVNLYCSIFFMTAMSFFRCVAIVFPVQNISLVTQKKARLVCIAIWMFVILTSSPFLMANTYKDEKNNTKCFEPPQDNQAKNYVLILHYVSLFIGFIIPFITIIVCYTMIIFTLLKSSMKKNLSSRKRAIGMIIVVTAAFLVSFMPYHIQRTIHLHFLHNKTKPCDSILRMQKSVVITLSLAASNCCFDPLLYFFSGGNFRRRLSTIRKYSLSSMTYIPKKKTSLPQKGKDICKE

SMILES: N#Cc1ccc(COc2cccc(OCc3ccc4ccccc4n3)c2)cc1 [Example 26, 4-(3-(2quinolinylmethyloxy)phenoxy-methyl)benzonitrile]
melting point: 112.5 °C

SMILES: c1ccc2nc(COc3ccc(COc4ccc(Cc5nnn[nH]5)cc4)cc3)ccc2c1 [Example 12, 5-[4(4-(2-quinolinylmethyloxy)benzyloxy)benzyl]tetrazole]
melting point: 179 to 181 °C

SMILES: c1cc(COc2cccc(-c3nnn[nH]3)c2)cc(OCc2ccc3ccccc3n2)c1 [Example 10, 5-[3-(3-(2-quinolinylmethyloxy)benzyloxy)phenyl]tetrazole]
melting point: 169 to 172 °C

SMILES: N#Cc1cccc(OCc2cccc(OCc3ccc4ccccc4n3)c2)c1 [Example 7, 3-[3-(2-quinolinylmethyloxy)benzyloxy]benzonitrile]
melting point: 86 to 87 °C

SMILES: COc1cc(C(=O)O)ccc1OCc1cccc(OCc2ccc3ccccc3n2)c1 [Example 15, 3-methoxy-4-(3-(2-quinolinylmethyloxy)benzyloxy)benzoic acid]
melting point: 188 to 190 °C

SMILES: Cc1c(C)c2c(c(C)c1O)CCC(C)(COc1ccc(CC3SC(=O)NC3=O)cc1)O2 (stereo not shown) [Troglitazone ®, Troglitazone, reference compound]
Kb (LTD4 receptor [1]): > 10000 nM
pEC50 (human preadipocytes; serum free medium): < 5.52

SMILES: COC(=O)c1ccc(OCc2cccc(OCc3ccc4ccccc4n3)c2)c(OC)c1 [Example 14, methyl 3-methoxy-4-(3-(2quinolinylmethyloxy)benzyloxy)-benzoate]
melting point: 100 to 101 °C

SMILES: c1ccc2nc(COc3ccc(COc4ccc(-c5nnn[nH]5)cc4)cc3)ccc2c1 [Example 11, 5-[4-(4-(2-quinolinylmethyloxy)benzyloxy)phenyl]tetrazole]
melting point: 210 to 213 °C

The next lines start with results.

melting point: 93 to 94 °C
SMILES: COC(=O)c1cccc(COc2cccc(OCc3ccc4ccccc4n3)c2)c1 [Example 19, methyl 3-(3-(2-quinolinylmethyloxy)phenoxymethyl)benzoate]

melting point: 91 °C (dec.)
SMILES: c1cc(OCc2ccc(-c3nnn[nH]3)cc2)cc(OCc2ccc3ccccc3n2)c1 [Example 27, 5-(4-(3-(2quinolinylmethyloxy)phenoxy-methyl)phenyl)tetrazole]

melting point: 131 to 132 °C
SMILES: c1cc(COc2ccc(OCc3ccc4ccccc4n3)cc2)cc(OCc2nnn[nH]2)c1 [Example 32, 5-(3-(4-(2-quinolinylmethyloxy)phenoxymethyl)phenoxymethyl)tetrazole]

binding to the LTD4 receptor (in words) (LTD4 receptor [1]): binds tightly
Kb (LTD4 receptor [1]; in serum): 88 nM
Kb (LTD4 receptor [1]): 38 nM
pEC50 (human preadipocytes; in serum): 5.52 to 6.00
pEC50 (human preadipocytes; serum free medium): 6.52 to 7.00
pKd (LTD4 receptor [2]): 8.52
SMILES: c1ccc(Cc2nn[nH]n2)c(COc2ccc(OCc3ccc4ccccc4n3)cc2)c1 [Compound VI, 5-[2-(4-(2-quinolinylmethoxy)phenoxymethyl)benzyl]tetrazole]
lowering plasma glucose (db/db mice; db/db mice, 50 or 150 mg/kg/day mixed with the food, Day 16, FIG. 3A): effective
lowering plasma free fatty acids (db/db mice; db/db mice, 50 or 150 mg/kg/day mixed with the food, Day 16, FIG. 3B): effective
lowering plasma triglycerides (db/db mice; db/db mice, 50 or 150 mg/kg/day mixed with the food, Day 16, FIG. 3C): effective
lowering plasma insulin (db/db mice; db/db mice, 50 or 150 mg/kg/day mixed with the food, Day 16, FIG. 3D): effective
efficacy relative to Troglitazone (db/db mice; db/db mice, same doses, listed as compound of formula VI): significantly better efficacy; also recorded: more efficacious than Troglitazone®
potency relative to Troglitazone in lowering glucose (db/db mice; db/db mouse, in-feed administration, FIG. 4): at least three times the potency of Troglitazone®
potency as PPAR-γ ligand receptor binder relative to Troglitazone (PPAR-γ): more potent PPAR-γ ligand receptor binder than Troglitazone®
activity in the differentiation assay (human preadipocytes; human preadipocytes): active
potency in the differentiation assay relative to Troglitazone (human preadipocytes; human preadipocytes): better potency than Troglitazone®

melting point: 149 to 151 °C
SMILES: O=C(O)c1cccc(COc2cccc(OCc3ccc4ccccc4n3)c2)c1 [Example 20, 3-(3-(2-quinolinylmethyloxy)phenoxymethyl)benzoic acid]
